Measurements reported in the supplement of paper PMC11061612.

Assays:
[1] = tested on: SW1271 (Small Cell Lung Carcinoma); assay: combination Emax (second highest fraction inhibited in the dose matrix, 72 h); higher = more inhibition; extreme values may be limits of the assay
Procedure, shortened: (§1)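 Bliss excess equals the observed combination effect minus the expected value EA + EB − EA·EB, where EA and EB are the effects of each agent alone. Combination Emax is the second-highest inhibition within the matrix. Inhibition was scaled from CellTiter-Glo 2.0 luminescence, with 0 set by vehicle wells and 1 by blank wells, after 72 hours of two-drug dosing of cells plated in 1536-well plates.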

[2] = tested on: KARPAS-231 (B-Cell Non-Hodgkin's Lymphoma); assay: as above
Procedure, shortened: as §1

[3] = tested on: HARA (Squamous Cell Lung Carcinoma); assay: as above
Procedure, shortened: as §1

[4] = tested on: NCI-H69 (Small Cell Lung Carcinoma); assay: as above
Procedure, shortened: as §1

[5] = tested on: CAL-54 (Kidney Carcinoma); assay: as above
Procedure, shortened: as §1

HMV-II (Melanoma) = assay: as above
Procedure, shortened: as §1

[6] = tested on: LB771-HNC (Head and Neck Carcinoma); assay: as above
Procedure, shortened: as §1

[7] = tested on: RPMI-6666 (Non-Cancerous); assay: as above
Procedure, shortened: as §1

[8] = tested on: CAPAN-1 (Pancreatic Carcinoma); assay: as above
Procedure, shortened: as §1

[9] = tested on: MHH-PREB-1 (B-Cell Non-Hodgkin's Lymphoma); assay: as above
Procedure, shortened: as §1

[10] = tested on: LU-139 (Small Cell Lung Carcinoma); assay: as above
Procedure, shortened: as §1

[11] = tested on: SK-OV-3 (Ovarian Carcinoma); assay: as above
Procedure, shortened: as §1

COLO-829 (Melanoma) = assay: as above
Procedure, shortened: as §1

NB14 (Neuroblastoma) = assay: as above
Procedure, shortened: as §1

[12] = tested on: HCC-15 (Squamous Cell Lung Carcinoma); assay: as above
Procedure, shortened: as §1

[13] = tested on: CAL-51 (Breast Carcinoma); assay: Bliss excess, mean over the matrix (fraction); higher = more synergy
Procedure, shortened: as §1

[14] = tested on: PCI-30 (Head and Neck Carcinoma); assay: as above
Procedure, shortened: as §1

[15] = tested on: OVCAR-8 (Ovarian Carcinoma); assay: as above
Procedure, shortened: as §1

[16] = tested on: RT-112 (Bladder Carcinoma); assay: as above
Procedure, shortened: as §1

NCI-H28 (Mesothelioma) = assay: combination Emax (second highest fraction inhibited in the dose matrix, 72 h); higher = more inhibition; extreme values may be limits of the assay
Procedure, shortened: as §1

SMILES: Cc1c2c(nn1C)CSCc1cc(n(C)n1)CSc1cc(c3ccccc3c1)OCCCc1c(C(=O)O)n(C)c3c-2c(Cl)ccc13 [AZD5991] + C1CN(CCC1(C(=O)N[C@@H](CCO)C2=CC=C(C=C2)Cl)N)C3=NC=NC4=C3C=CN4 [Capivasertib] (first compound max 1 µM, 7x7, partner max 3 µM)
- combination Emax [1]: 0.216
- combination Emax [2]: 1
- combination Emax [3]: 0.58
- combination Emax [4]: 0.405
- combination Emax [5]: 0.351
- combination Emax (HMV-II (Melanoma)): 0.198
- combination Emax [6]: 0.587
- combination Emax [7]: 0.7
- combination Emax [8]: 0.203
- combination Emax [9]: 0.101
- combination Emax [10]: 0.268
- combination Emax [11]: 0.36
- combination Emax (COLO-829 (Melanoma)): 0.222
- combination Emax (NB14 (Neuroblastoma)): 0.89
- combination Emax [12]: 0.227
- Bliss excess [13]: 0.0392
- Bliss excess [14]: 0.0204
- Bliss excess [15]: 0
- Bliss excess [16]: 0.0563

SMILES: Cc1nc(-c2cn3c(n2)-c2ccc(-c4cnn(C(C)(C)C(N)=O)c4)cc2OCC3)n(C(C)C)n1 [Taselisib] + O=C(Nc1ccc2[nH]nc(-c3ccncc3)c2c1)[C@@H]1CCN(CC(=O)N2CCN(c3ccc(-c4ncccn4)cc3)CC2)C1 [SCH772984] (first compound max 10 µM, 7x7, partner max 5 µM)
- combination Emax [1]: 0.531
- combination Emax [3]: 0.871
- combination Emax [4]: 0.716
- combination Emax [5]: 0.816
- combination Emax (HMV-II (Melanoma)): 0.867
- combination Emax [7]: 0.716
- combination Emax [8]: 0.77
- combination Emax (NCI-H28 (Mesothelioma)): 0.589
- combination Emax [10]: 0.154
- combination Emax [11]: 0.69
- combination Emax (NB14 (Neuroblastoma)): 0.697
- Bliss excess [14]: 0.023
- Bliss excess [16]: 0.108

SMILES: C=CCn1c(=O)c2cnc(Nc3ccc(N4CCN(C)CC4)cc3)nc2n1-c1cccc(C(C)(C)O)n1 [AZD1775] + C[C@@H]1COCCN1C2=NC(=NC(=C2)C3(CC3)[S@](=N)(=O)C)C4=C5C=CNC5=NC=C4 [AZD6738] (first compound max 1 µM, partner max 10 µM)
- combination Emax [1]: 0.637
- combination Emax [2]: 0.98
- combination Emax [3]: 0.906
- combination Emax [4]: 0.849
- combination Emax [5]: 0.759
- combination Emax (HMV-II (Melanoma)): 0.495
- combination Emax [6]: 0.536
- combination Emax [8]: 0.49
- combination Emax [9]: 0.948
- combination Emax (NCI-H28 (Mesothelioma)): 0.618
- combination Emax [10]: 0.721
- combination Emax [11]: 0.755
- combination Emax (COLO-829 (Melanoma)): 0.129
- combination Emax (NB14 (Neuroblastoma)): 1
- combination Emax [12]: 0.504
- Bliss excess [13]: 0.0981
- Bliss excess [14]: 0.0406
- Bliss excess [15]: 0.0818
- Bliss excess [16]: 0.0578

SMILES: CS(=O)(=O)CCNCc1ccc(-c2ccc3ncnc(Nc4ccc(OCc5cccc(F)c5)c(Cl)c4)c3c2)o1 [Lapatinib] + Cn1cnc2c(F)c(Nc3ccc(Br)cc3Cl)c(C(=O)NOCCO)cc21 [Selumetinib] (first compound max 10 µM, 7x7, partner max 10 µM)
- combination Emax [1]: 0.646
- combination Emax [3]: 0.76
- combination Emax [4]: 0.425
- combination Emax [5]: 0.559
- combination Emax (HMV-II (Melanoma)): 0.768
- combination Emax [7]: 0.462
- combination Emax [8]: 0.615
- combination Emax (NCI-H28 (Mesothelioma)): 0.412
- combination Emax [10]: 0.161
- combination Emax [11]: 0.347
- combination Emax (NB14 (Neuroblastoma)): 0.898
- Bliss excess [14]: 0.0027
- Bliss excess [16]: 0.0134

SMILES: C=CCn1c(=O)c2cnc(Nc3ccc(N4CCN(C)CC4)cc3)nc2n1-c1cccc(C(C)(C)O)n1 [AZD1775] + O=C(c1cc(Cc2n[nH]c(=O)c3ccccc23)ccc1F)N1CCN(C(=O)C2CC2)CC1 [Olaparib] (first compound max 1 µM, partner max 10 µM)
- combination Emax [1]: 0.619
- combination Emax [2]: 0.972
- combination Emax [3]: 0.743
- combination Emax [4]: 0.478
- combination Emax [5]: 0.679
- combination Emax (HMV-II (Melanoma)): 0.401
- combination Emax [6]: 0.533
- combination Emax [8]: 0.516
- combination Emax [9]: 0.76
- combination Emax (NCI-H28 (Mesothelioma)): 0.421
- combination Emax [10]: 0.636
- combination Emax [11]: 0.547
- combination Emax (COLO-829 (Melanoma)): 0.174
- combination Emax (NB14 (Neuroblastoma)): 0.986
- combination Emax [12]: 0.31
- Bliss excess [13]: -0.0122
- Bliss excess [14]: -0.0579
- Bliss excess [15]: -0.0303
- Bliss excess [16]: 0.0461

SMILES: CN(CCO)CC[C@H](CSc1ccccc1)Nc1ccc(S(=O)(=O)NC(=O)c2ccc(N3CCC([C@@H](O)c4ccccc4-c4ccc(Cl)cc4)CC3)cc2)cc1S(=O)(=O)C(F)(F)F [AZD4320] + C=CCn1c(=O)c2cnc(Nc3ccc(N4CCN(C)CC4)cc3)nc2n1-c1cccc(C(C)(C)O)n1 [AZD1775] (first compound max 1 µM, partner max 1 µM)
- combination Emax [1]: 0.814
- combination Emax [2]: 1
- combination Emax [3]: 0.887
- combination Emax [4]: 0.858
- combination Emax [5]: 0.827
- combination Emax (HMV-II (Melanoma)): 0.47
- combination Emax [6]: 0.644
- combination Emax [7]: 1
- combination Emax [8]: 0.732
- combination Emax (NCI-H28 (Mesothelioma)): 0.437
- combination Emax [10]: 0.927
- combination Emax [11]: 0.628
- combination Emax (COLO-829 (Melanoma)): 0.265
- combination Emax (NB14 (Neuroblastoma)): 1
- combination Emax [12]: 0.946
- Bliss excess [13]: -0.0122
- Bliss excess [14]: 0.0013
- Bliss excess [15]: -0.012
- Bliss excess [16]: -0.0285

SMILES: CCc1c2c(nc3ccc(O)cc13)-c1cc3c(c(=O)n1C2)COC(=O)[C@]3(O)CC [SN-38] + O=C(c1cc(Cc2n[nH]c(=O)c3ccccc23)ccc1F)N1CCN(C(=O)C2CC2)CC1 [Olaparib] (first compound max 0.3 µM, 7x7, partner max 10 µM)
- combination Emax [1]: 0.758
- combination Emax [2]: 1
- combination Emax [3]: 0.852
- combination Emax [4]: 0.692
- combination Emax [5]: 0.788
- combination Emax (HMV-II (Melanoma)): 0.641
- combination Emax [6]: 0.0947
- combination Emax [7]: 0.998
- combination Emax [8]: 0.818
- combination Emax (NCI-H28 (Mesothelioma)): 0.429
- combination Emax [10]: 0.767
- combination Emax [11]: 0.535
- combination Emax (COLO-829 (Melanoma)): 0.662
- combination Emax (NB14 (Neuroblastoma)): 0.967
- Bliss excess [13]: 0.119
- Bliss excess [14]: 0.0572
- Bliss excess [16]: 0.116
